Key:
[1] = tested on: human lung fibroblasts MRC-5 cell lines; experiment: TGF-β induced Collagen I expression in MRC-5 cells (Western blot); assay type: cell-based; details: TGF-β 5 ng/ml; 0.5 μM and 1 μM; 24 hours; FIG. 44
Protocol: To confirm that the compound of the present invention directly acts on fibrosis-related mechanisms, in vitro experiments were performed using human lung fibroblasts MRC-5 cell lines (Korea Cell Bank).
First, MRC-5 cells were seeded at 5×10^3 cells per well in a 6-well plate and stabilized for 24 hours.
Subsequently, experimental groups were established, including a control group, a group treated with TGF-β (5 ng/ml) alone, and groups treated with TGF-β and the compound GO88 from the present invention at concentrations of 0.5 μM and 1 μM, respectively.
After treating each group with the drugs for 24 hours, the cell medium was removed, and the cells were washed twice with cold PBS. Then, RIPA lysis buffer containing phosphatase inhibitor and protease inhibitor was added to each group to extract proteins.
The extracted proteins were incubated at 4° C. for 30 minutes, then centrifuged at 13,000 rpm for 15 minutes, and the supernatant was collected. The total protein concentration was measured using the BCA protein quantification method.
Subsequently, the proteins were separated by SDS-PAGE, transferred to a PVDF membrane, and Western blot analysis was performed.
The expression levels of Collagen I, a marker related to pulmonary fibrosis, were confirmed, with GAPDH used as an internal control.

[2] = target: T1, full-length PDK1 (PDK1-FL) (Homo sapiens, UniProt O15530); experiment: Microscale Thermophoresis (MST) binding affinity, full-length PDK1
T1 construct: the full-length (PDK1-FL) protein of human-derived PDK1; inferred from Ni-NTA purification; made in house; host or cells: Sf9 insect cells, baculovirus expression system
T1 sequence (O15530 whole entry): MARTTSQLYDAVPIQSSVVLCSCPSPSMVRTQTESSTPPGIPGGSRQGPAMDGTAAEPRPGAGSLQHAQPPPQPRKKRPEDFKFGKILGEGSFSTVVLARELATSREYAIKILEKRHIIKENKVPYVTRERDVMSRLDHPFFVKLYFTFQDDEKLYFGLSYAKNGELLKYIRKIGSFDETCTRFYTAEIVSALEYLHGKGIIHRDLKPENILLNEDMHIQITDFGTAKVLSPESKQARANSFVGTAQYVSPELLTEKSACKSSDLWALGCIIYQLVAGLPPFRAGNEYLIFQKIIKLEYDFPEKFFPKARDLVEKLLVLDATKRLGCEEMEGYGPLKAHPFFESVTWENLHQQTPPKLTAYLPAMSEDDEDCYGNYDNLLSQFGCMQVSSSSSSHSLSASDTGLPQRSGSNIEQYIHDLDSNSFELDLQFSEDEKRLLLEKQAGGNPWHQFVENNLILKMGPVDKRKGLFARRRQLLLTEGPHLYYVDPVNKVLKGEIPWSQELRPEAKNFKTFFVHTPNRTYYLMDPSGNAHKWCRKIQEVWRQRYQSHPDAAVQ
Protocol: (§1) Microscale Thermophoresis (MST) analysis was performed to quantitatively measure the binding affinity between PDK1 protein and substrate peptides (PDKTide) or the company-developed low-molecular-weight compound (GO88).
(§2) The target proteins were the full-length (PDK1-FL) protein of human-derived PDK1 and the Protein Kinase Domain (PKD) fragment, which were expressed using a baculovirus expression system in insect cell lines (Sf9).
(§3) The purity of the purified proteins was confirmed by SDS-PAGE and Coomassie Brilliant Blue staining.
(§4) The purified protein was labeled with a fluorescent label using the Monolith NT™ RED-NHS Protein Fluorescent Labeling Kit (NanoTemper).
(§5) Specifically, 20 μM of the protein was dissolved in PBS (pH 7.4) buffer, mixed with the fluorescent reagent, and reacted at room temperature under dark conditions for 30 minutes. The mixture was then buffered with MST analysis buffer (50 mM HEPES, 150 mM NaCl, 1 mM DTT, 0.05% Tween-20, pH 7.5). […]
(§6) The reaction samples were injected into an MST-specific capillary (NanoTemper) and analyzed using a Monolith NT.115 device (NanoTemper) under laser intensity conditions. […]
(§7) The measured data were analyzed using MO.Affinity Analysis software (NanoTemper), and the dissociation constant (Kd) was calculated from the binding curve.

[3] = target: T2, PDK1-PKD protein (Protein Kinase Domain fragment) (Homo sapiens, UniProt O15530); experiment: Microscale Thermophoresis (MST) binding affinity, PDK1-PKD; details: in the presence of ATP; FIG. 48; read-out: Dissociation constant (Kd), PDK1-PKD
T2 construct: the Protein Kinase Domain (PKD) fragment; inferred from Ni-NTA purification; made in house; host or cells: Sf9 insect cells, baculovirus expression system
T2 sequence (O15530 82-342 limits assumed): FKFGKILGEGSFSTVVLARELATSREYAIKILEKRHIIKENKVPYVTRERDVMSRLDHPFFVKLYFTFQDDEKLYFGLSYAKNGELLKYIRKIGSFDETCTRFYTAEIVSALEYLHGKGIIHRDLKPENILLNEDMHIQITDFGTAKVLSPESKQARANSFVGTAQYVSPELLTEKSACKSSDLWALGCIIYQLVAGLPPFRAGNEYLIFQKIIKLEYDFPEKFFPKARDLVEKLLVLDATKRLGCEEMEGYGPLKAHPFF
Protocol: as §1, §2, §3, §4, §5, §6, §7

[4] = tested on: C57BL/6 mice with skin grafts; experiment: Skin graft animal model (BALB/c donor, C57BL/6 recipient); assay type: in vivo, mouse; details: 0.15 mg/kg twice daily
Protocol: To evaluate the immune-suppressive effects of the compounds according to the present invention, a skin graft animal model was established, and the efficacy of the compounds was analyzed in the model.
First, female BALB/c mice aged 7 weeks and weighing approximately 20 g were used as donor animals, and female C57BL/6 mice of the same age and weight were used as recipient animals. All experimental animals were supplied by HanabioTech Co., Ltd.
Prior to the experiment, the animals were acclimatized in SPF-certified facilities for one week and then used in the experiment. The housing conditions were maintained at a temperature of 22±2° C., relative humidity of 55+10%, and a 12-hour light-dark cycle.
To establish the skin graft model, a anesthetic solution consisting of ketamine, […], and PBS in a volume ratio of 1:1:3 was administered intraperitoneally to C57BL/6 mice to induce anesthesia.
The hair on the dorsal side of the anesthetized mice was removed and disinfected, followed by excision of the full-thickness skin using an 8 mm punch. Subsequently, skin of the same size was harvested from donor mice (BALB/c) and transplanted. […]
Subsequently, the proportions of CD3- and B220-positive cells were analyzed using a flow cytometer.

[5] = tested on: Human multiple myeloma, KMS12PE; experiment: Relative cell viability, KMS12PE; assay type: cell-based; details: KMS-12-PE
Protocol: After that, 10 μL of CCK-8 was added to each well, and the plate was incubated again at 37° C. in a 5% CO2 incubator for 2 hours.
In other words, when the survival rate of untreated cells (DMSO) is set at 100%, the relative cell survival rate in each group treated with the drug at different concentrations is indicated.

Kd ([2]; FIG. 48, read-out: Dissociation constant (Kd), full-length PDK1) [nM] | Kd [3] [nM] | Compound | Protein expression of Collagen I [1] | Binding affinity of full-length PDK1 compared to the PKD fragment ([2]; ratio of Kd values) | Animals with graft pinkening and good blood flow ([4]; day 10 post-transplantation) | Animals with graft pinkening and good blood flow ([4]; day 15 post-transplantation) | viability at 10 µM [5] [%]
~58.4 | ~371 | Nc1ncccc1C(=O)NCCCCCCCCCCCCN1CCNCC1 [Compound 14, 2-Amino-N-(12-(piperazin-1-yl)dodecyl)nicotinamide] | inhibited in a concentration-dependent manner | approximately six times stronger binding affinity | three out of five | one out of five | –
– | – | Nc1ncccc1C(=O)NCCCCCCCCCCCCF [Compound 57, 2-Amino-N-(12-fluoro-dodecyl)-nicotinamide] | – | – | – | – | 41.7
